system: Puccinia recondita f sp. tritici; experiment: Test A: wheat leaf rust, preventive spray on wheat seedlings, visual disease rating; assay type: in vivo; details: 10 ppm (**), 100 = 100% disease control, 0 = no control
Source text: General protocol for preparing test suspensions for Tests A-D: the test compounds were first dissolved in acetone in an amount equal to 3% of the final volume and then suspended at the desired concentration (in ppm) in acetone and purified water (50/50 mix by volume) containing 250 ppm of the surfactant Trem® 014 (polyhydric alcohol esters). The resulting test suspensions were then used in Tests A-D. The test suspension was sprayed to the point of run-off on wheat seedlings. The following day the seedlings were inoculated with a spore suspension of Puccinia recondita f sp. tritici (the causal agent of wheat leaf rust) and incubated in a saturated atmosphere at 20° C. for 24 h, and then moved to a growth chamber at 20° C. for 7 days, after which time visual disease ratings were made. In the Table, a rating of 100 indicates 100% disease control and a rating of 0 indicates no disease control (relative to the controls). A dash (−) indicates no test results. All results are for 250 ppm except where followed by an “*” which indicates 50 ppm, and where followed by an “**” which indicates 10 ppm

`Cc1nn(C)c(CC(C)C)c1C(O)c1ccc(F)cc1Cl` (stereo not drawn) [Compound 3, α-(2-chloro-4-fluorophenyl)-1,3-dimethyl-5-(2-methylpropyl)-1H-pyrazole-4-methanol] showed a pest or weed control at 10 ppm of 89%.

same assay, conditions: 50 ppm (*), 100 = 100% disease control, 0 = no control

Point of comparison: `Cc1nn(C)c(CC(C)C)c1C(O)c1ccc(F)cc1F` (stereo not drawn) [Compound 14, α-(2,4-difluorophenyl)-1,3-dimethyl-5-(2-methylpropyl)-1H-pyrazole-4-methanol], pest or weed control at 50 ppm 74%. Against it:
- CCC(C)c1c(C(O)c2ccc(F)cc2Cl)c(C)nn1C (stereo not drawn) [Compound 9, α-(2-chloro-4-fluorophenyl)-1,3-dimethyl-5-(1-methylpropyl)-1H-pyrazole-4-methanol] — higher, 100%
- CCC(C)c1c(C(O)c2c(F)cc(F)cc2F)c(C)nn1C (stereo not drawn) [Compound 23, 1,3-dimethyl-5-(1-methylpropyl)-α-(2,4,6-trifluorophenyl)-1H-pyrazole-4-methanol] — higher, 97%

system: Septoria tritici; experiment: Test B: wheat leaf blotch, preventive spray on wheat seedlings, visual disease rating; assay type: in vivo; details: Zymoseptoria tritici, 10 ppm (**), 100 = 100% disease control, 0 = no control
Source text: General protocol for preparing test suspensions for Tests A-D: the test compounds were first dissolved in acetone in an amount equal to 3% of the final volume and then suspended at the desired concentration (in ppm) in acetone and purified water (50/50 mix by volume) containing 250 ppm of the surfactant Trem® 014 (polyhydric alcohol esters). The resulting test suspensions were then used in Tests A-D. The test suspension was sprayed to the point of run-off on wheat seedlings. The following day the seedlings were inoculated with a spore suspension of Septoria tritici (the causal agent of wheat leaf blotch) and incubated in a saturated atmosphere at 24° C. for 48 h, and then moved to a growth chamber at 20° C. for 19 days, after which time visual disease ratings were made. In the Table, a rating of 100 indicates 100% disease control and a rating of 0 indicates no disease control (relative to the controls). A dash (−) indicates no test results. All results are for 250 ppm except where followed by an “*” which indicates 50 ppm, and where followed by an “**” which indicates 10 ppm

`Cc1nn(C)c(CC(C)C)c1C(O)c1ccc(F)cc1Cl` (stereo not drawn) [Compound 3, α-(2-chloro-4-fluorophenyl)-1,3-dimethyl-5-(2-methylpropyl)-1H-pyrazole-4-methanol] showed a pest or weed control at 10 ppm of 100%.

same assay, conditions: Zymoseptoria tritici, 50 ppm (*), 100 = 100% disease control, 0 = no control

Point of comparison: `CCC(C)c1c(C(O)c2c(F)cc(F)cc2F)c(C)nn1C` (stereo not drawn) [Compound 23, 1,3-dimethyl-5-(1-methylpropyl)-α-(2,4,6-trifluorophenyl)-1H-pyrazole-4-methanol], pest or weed control at 50 ppm 94%. Against it:
- CCC(C)c1c(C(O)c2ccc(F)cc2Cl)c(C)nn1C (stereo not drawn) [Compound 9, α-(2-chloro-4-fluorophenyl)-1,3-dimethyl-5-(1-methylpropyl)-1H-pyrazole-4-methanol] — higher, 99%
- Cc1nn(C)c(CC(C)C)c1C(O)c1ccc(F)cc1F (stereo not drawn) [Compound 14, α-(2,4-difluorophenyl)-1,3-dimethyl-5-(2-methylpropyl)-1H-pyrazole-4-methanol] — higher, 99%

system: Botrytis cinerea; experiment: Test C: tomato Botrytis, preventive spray on tomato seedlings, visual disease rating; assay type: in vivo; details: Botrytis cinerea, 10 ppm (**), 100 = 100% disease control, 0 = no control
Source text: General protocol for preparing test suspensions for Tests A-D: the test compounds were first dissolved in acetone in an amount equal to 3% of the final volume and then suspended at the desired concentration (in ppm) in acetone and purified water (50/50 mix by volume) containing 250 ppm of the surfactant Trem® 014 (polyhydric alcohol esters). The resulting test suspensions were then used in Tests A-D. The test suspension was sprayed to the point of run-off on tomato seedlings. The following day the seedlings were inoculated with a spore suspension of Botrytis cinerea (the causal agent of tomato Botrytis) and incubated in a saturated atmosphere at 20° C. for 48 h, and then moved to a growth chamber at 24° C. for 3 days, after which time visual disease ratings were made. In the Table, a rating of 100 indicates 100% disease control and a rating of 0 indicates no disease control (relative to the controls). A dash (−) indicates no test results. All results are for 250 ppm except where followed by an “*” which indicates 50 ppm, and where followed by an “**” which indicates 10 ppm

For `Cc1nn(C)c(CC(C)C)c1C(O)c1ccc(F)cc1Cl` (stereo not drawn) [Compound 3, α-(2-chloro-4-fluorophenyl)-1,3-dimethyl-5-(2-methylpropyl)-1H-pyrazole-4-methanol], the pest or weed control at 10 ppm was 0%.

same assay, conditions: Botrytis cinerea, 50 ppm (*), 100 = 100% disease control, 0 = no control

Point of comparison: `CCC(C)c1c(C(O)c2c(F)cc(F)cc2F)c(C)nn1C` (stereo not drawn) [Compound 23, 1,3-dimethyl-5-(1-methylpropyl)-α-(2,4,6-trifluorophenyl)-1H-pyrazole-4-methanol], pest or weed control at 50 ppm 31%. Against it:
- CCC(C)c1c(C(O)c2ccc(F)cc2Cl)c(C)nn1C (stereo not drawn) [Compound 9, α-(2-chloro-4-fluorophenyl)-1,3-dimethyl-5-(1-methylpropyl)-1H-pyrazole-4-methanol] — higher, 99%
- Cc1nn(C)c(CC(C)C)c1C(O)c1ccc(F)cc1F (stereo not drawn) [Compound 14, α-(2,4-difluorophenyl)-1,3-dimethyl-5-(2-methylpropyl)-1H-pyrazole-4-methanol] — lower, 16%

system: Blumeria graminis f sp. tritici; experiment: Test D: wheat powdery mildew, preventive spray on wheat seedlings, visual disease rating; assay type: in vivo; details: Blumeria graminis, 10 ppm (**), 100 = 100% disease control, 0 = no control
Source text: General protocol for preparing test suspensions for Tests A-D: the test compounds were first dissolved in acetone in an amount equal to 3% of the final volume and then suspended at the desired concentration (in ppm) in acetone and purified water (50/50 mix by volume) containing 250 ppm of the surfactant Trem® 014 (polyhydric alcohol esters). The resulting test suspensions were then used in Tests A-D. The test suspension was sprayed to the point of run-off on wheat seedlings. The following day the seedlings were inoculated with a spore dust of Blumeria graminis f sp. tritici, (also known as Erysiphe graminis f. sp. tritici, the causal agent of wheat powdery mildew) and incubated in a growth chamber at 20° C. for 8 days, after which time visual disease ratings were made. In the Table, a rating of 100 indicates 100% disease control and a rating of 0 indicates no disease control (relative to the controls). A dash (−) indicates no test results. All results are for 250 ppm except where followed by an “*” which indicates 50 ppm, and where followed by an “**” which indicates 10 ppm

Work on `Cc1nn(C)c(CC(C)C)c1C(O)c1ccc(F)cc1Cl` (stereo not drawn) [Compound 3, α-(2-chloro-4-fluorophenyl)-1,3-dimethyl-5-(2-methylpropyl)-1H-pyrazole-4-methanol] yielded a pest or weed control at 10 ppm of 71%.

same assay, conditions: Blumeria graminis, 50 ppm (*), 100 = 100% disease control, 0 = no control

Point of comparison: `CCC(C)c1c(C(O)c2c(F)cc(F)cc2F)c(C)nn1C` (stereo not drawn) [Compound 23, 1,3-dimethyl-5-(1-methylpropyl)-α-(2,4,6-trifluorophenyl)-1H-pyrazole-4-methanol], pest or weed control at 50 ppm 96%. Against it:
- CCC(C)c1c(C(O)c2ccc(F)cc2Cl)c(C)nn1C (stereo not drawn) [Compound 9, α-(2-chloro-4-fluorophenyl)-1,3-dimethyl-5-(1-methylpropyl)-1H-pyrazole-4-methanol] — higher, 99%
- Cc1nn(C)c(CC(C)C)c1C(O)c1ccc(F)cc1F (stereo not drawn) [Compound 14, α-(2,4-difluorophenyl)-1,3-dimethyl-5-(2-methylpropyl)-1H-pyrazole-4-methanol] — higher, 98%

system: not given; experiment: not given; details: not given

First: Cc1nn(C)c(CC(C)C)c1C(O)c1ccc(F)cc1Cl (stereo not drawn) [Compound 3, α-(2-chloro-4-fluorophenyl)-1,3-dimethyl-5-(2-methylpropyl)-1H-pyrazole-4-methanol]
Second: Cc1nn(C)c(CC(C)C)c1C(O)c1ccc(F)cc1F (stereo not drawn) [Compound 14, α-(2,4-difluorophenyl)-1,3-dimethyl-5-(2-methylpropyl)-1H-pyrazole-4-methanol]
The melting point of the first is higher: 159 to 162 °C for the first, 129 to 133 °C for the second.

First: CCC(C)c1c(C(O)c2ccc(F)cc2Cl)c(C)nn1C (stereo not drawn) [Compound 9, α-(2-chloro-4-fluorophenyl)-1,3-dimethyl-5-(1-methylpropyl)-1H-pyrazole-4-methanol]
Second: CCC(C)c1c(C(O)c2c(F)cc(F)cc2F)c(C)nn1C (stereo not drawn) [Compound 23, 1,3-dimethyl-5-(1-methylpropyl)-α-(2,4,6-trifluorophenyl)-1H-pyrazole-4-methanol]
The melting point of the first is higher: 128 to 131 °C for the first, 114 to 117 °C for the second.

Reference: patent US20170037014A1, “FUNGICIDAL PYRAZOLES” (E. I. DU PONT DE NEMOURS AND COMPANY, priority 2014, published 2017)
